Measurements as given in paper PMC9950073, “Alleviation of arthritis through prevention of neutrophil extracellular traps by an orally available inhibitor of protein arginine deiminase 4” (Scientific Reports, 2023).

Molecular target: T1, CYP3A4 (Homo sapiens, UniProt P08684)
T1 construct: from tissue; host or cells: human liver microsomes
Experiment: CYP inhibition in human liver microsome, CYP3A4
Assay type: in vitro ADME
Procedure: CYP inhibition: Human liver microsome (0.1–0.5 mg/mL for various CYPs) and appropriate probe substrates (2.5–20 µM) were incubated in potassium phosphate buffer with or without JBI-589 for 5 min at 37 °C. The reaction was initiated by addition of NADPH (1 mM), incubated at 37 °C for 10 min and quenched (0.5% Formic acid in internal standard (IS) containing ACN). Samples were then centrifuged and taken for LC–MS/MS analysis. Percent change in metabolite formation for each substrate under above conditions using formula: Percent inhibition = [1 − (test area ratio/control area ratio)] *100.

T1 sequence (P08684 whole entry): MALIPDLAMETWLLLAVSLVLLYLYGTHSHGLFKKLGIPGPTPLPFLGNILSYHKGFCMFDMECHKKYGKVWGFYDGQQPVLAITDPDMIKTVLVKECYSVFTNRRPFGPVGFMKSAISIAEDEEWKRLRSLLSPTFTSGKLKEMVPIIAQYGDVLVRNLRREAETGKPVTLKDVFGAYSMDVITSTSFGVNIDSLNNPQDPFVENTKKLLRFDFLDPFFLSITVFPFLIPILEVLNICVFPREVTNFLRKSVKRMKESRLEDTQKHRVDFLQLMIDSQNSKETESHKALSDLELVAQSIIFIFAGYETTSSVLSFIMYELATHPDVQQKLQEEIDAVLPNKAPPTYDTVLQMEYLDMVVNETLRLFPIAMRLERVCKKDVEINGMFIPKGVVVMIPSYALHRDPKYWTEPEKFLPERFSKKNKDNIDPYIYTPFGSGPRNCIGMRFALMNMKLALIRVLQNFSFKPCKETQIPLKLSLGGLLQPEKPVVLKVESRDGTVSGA

Question: Which results are given for `Cc1c(-c2cc3ccccc3n2Cc2ccc(F)cc2)nc2cc(C(=O)N3CCC[C@@H](N)C3)ccn12` [JBI-589, (R)-(3-aminopiperidin-1-yl)(2-(1-(4-fluorobenzyl)-1H-indol-2-yl)-3-methylimidazo[1,2-a]pyridin-7-yl)methanone]?
Answer: inhibition at 10 min, 10 µM (human liver microsomes, 10 µM, human liver microsome, read-out: CYP3A4 inhibition (% inh @10 µM)): < 50%; IC50 (predicted from % inhibition, text says major CYPs tested): > 10 µM
